Data: the COVID Moonshot data (paper PMC7615835)
pIC50: −log10 of the molar value. Where “and” joins values, the source holds several entries; their conditions need not be identical. Equal entries are not always repeated.

target: SARS-CoV-2 Main Protease (SARS-CoV-2) (UniProt P0DTD1)

Compound | pIC50
O=C(Nc1cccnc1)N1CCC(CN2CCc3ccccc32)CC1 | < 4.00
CC(C)C[C@H]1CN(C(=O)CCl)CCN1Cc1cccc(Cl)c1 (stereo in doubt) | 6.12 and 6.19
N#CC1CN(S(=O)(=O)N2Cc3ccc(Cl)cc3C3(CCN(c4cncc5ccccc45)C3=O)C2)C1 (stereo not drawn) | 6.74
CC(=O)NC(C(=O)Nc1cncc2ccccc12)c1ccc(Cl)c(Cl)c1 (stereo not drawn) | 5.39
C=CC(=O)N(c1ccc(C2(C)CC2)cc1)C(C(=O)Nc1cccc(CC)c1)c1cccnc1 (stereo not drawn) | < 4.00
O=C(Cc1cc(Cl)cc(Nc2ncc(Br)nc2Cl)c1)Nc1cncc2ccccc12 | 5.77
CN(C)C(=O)COCC(=O)NC(C(=O)Nc1cncc2ccccc12)c1cccc(Cl)c1 (stereo not drawn) | 5.27
Cc1ccncc1NC(=O)Cc1cc(Cl)cc(NS(C)(=O)=O)c1 | 4.66
N#CC1(CS(=O)(=O)N2Cc3ccc(Cl)cc3C(C(=O)Nc3nncn3C3CC3)C2)CC1 (stereo not drawn) | 4.26
O=C(Nc1cc[nH]c(=O)c1)C1CCOc2ccc(Cl)cc21 (stereo not drawn) | < 4.00
CN(C)c1ncc(C(C(=O)NCCc2cccc(F)c2)N(C(=O)c2cocn2)c2ccc(C(C)(C)C)cc2)cn1 (stereo not drawn) | < 4.00
O=C(Cc1cccc(Cl)c1)Nc1nnc2ccccn12 | < 4.00
O=C(C1CCOc2cc(Cl)ccc21)N(Cc1c[nH]c(=O)[nH]c1=O)c1cncc2ccccc12 (stereo not drawn) | 5.15
CCC(=O)Nc1ccc(N(C)C(=O)Cn2nnc3ccccc32)cc1 | < 4.00
Cc1cccc(C)c1N(C(=O)CN1CCNCC1)c1cc(Cl)cc(CC(=O)Nc2cncc3ccccc23)c1 | 5.56
CC(C)(C)c1ccc(N(C(=O)c2nc(CN3CCOCC3)cs2)C(C(=O)NCCc2cccc(F)c2)c2cccnc2)cc1 (stereo not drawn) | < 4.00
O=C1CC(C(=O)Nc2cncc3ccccc23)c2cc(Cl)cc(Cl)c2N1 (stereo not drawn) | 5.61 and 5.42
CN(C)S(=O)(=O)N1CCc2ccc(Cl)cc2C1C(=O)Nc1cncc2ccccc12 (stereo not drawn) | 5.71
O=C(CCl)N1CCCN(S(=O)(=O)c2cccs2)CC1 | 5.14
O=C(CC1(C(=O)Nc2cncc3ccccc23)CCOc2ccc(Cl)cc21)N1CCC2CS(=O)(=O)CC2C1 (stereo not drawn) | 5.78
Cc1cc(Nc2cc(Cl)cc(CC(=O)Nc3cncc4ccccc34)c2)c(F)cc1Br | 5.69
CC(C)c1ccncc1NC(=O)Cc1cccc(Cl)c1 | 4.71
O=C(Cc1cccc(Cl)c1)Nc1cn[nH]c1 | < 4.00
Cc1ccc(Br)nc1C(=O)NC(C)c1nnc2c(=O)[nH]ccn12 (stereo not drawn) | < 4.00
Cc1ccc(CC(=O)Nc2cncc3ccccc23)cc1 | 4.23

Compound | pIC50
O=C(Cc1cc(Cl)cc(Nc2nc(Cl)nc3nc[nH]c23)c1)Nc1cncc2ccccc12 | 5.63
CC(C)=CCC[C@@](C)(O)[C@H]1CC[C@]2(C)[C@@H]1[C@H](O)C[C@@H]1[C@@]3(C)CC[C@H](O[C@@H]4O[C@H](CO)[C@@H](O)[C@H](O)[C@H]4O)C(C)(C)[C@@H]3CC[C@]12C (stereo in doubt) | < 4.00
COCCNC(=O)[C@@H](c1ccccc1)N1Cc2ccccc2C1=O (stereo in doubt) | < 4.00
CS(=O)(=O)c1ccc2c(NC(=O)C34CC(C3)Oc3ccc(Cl)cc34)cncc2c1 | 4.64
CC(C)(C)c1ccc(N(C(=O)c2c[nH]c(=O)cn2)C(C(=O)NCCc2cccc(F)c2)c2cccnc2)cc1 (stereo not drawn) | 4.11
CC1CC(CCN(C(=O)c2ccco2)C(C(=O)NCCc2cccc(F)c2)c2cccnc2)CC(C)(C)C1 (stereo not drawn) | < 4.00
C[C@@]1(C(=O)Nc2cncc3ccccc23)CCNc2cc(Cl)c(Cl)cc21 (stereo in doubt) | 6.63 and 6.01
Cc1ccccc1C(C)N(C(=O)c1cnc[nH]1)C(C(=O)NCCc1cccc(F)c1)c1cccnc1 (stereo not drawn) | < 4.00
O=C(Cc1cccc(Cl)c1)Nc1cncc2c1CCCN2 | 5.14
Nc1nn(C(=O)Cc2cccc(Cl)c2)c2ccc(F)cc12 | < 4.00
C[C@]1(C(=O)Nc2cncc3c2CCCC3)CNS(=O)(=O)c2ccc(Cl)cc21 (stereo in doubt) | 6.67
O=C(NCC(c1ccccc1)c1c[nH]c2ccccc12)c1cnccn1 (stereo not drawn) | < 4.00
O=C(Cc1cc(Cl)cc(Cc2ccn[nH]2)c1)Nc1cncc2ccccc12 | 5.30
CN1CCn2nc(C(=O)N(c3ccc(C(C)(C)C)cc3)C(C(=O)NCCc3cccc(F)c3)c3cccnc3)cc2S1(=O)=O (stereo not drawn) | < 4.00
COC1(CS(=O)(=O)N2Cc3ccc(Cl)cc3C(C(=O)Nc3cncc4ccc(C(C)(C)O)cc34)C2)CC1 (stereo not drawn) | 5.75
O=C(CCl)N1CCCN(S(=O)(=O)c2cccc(F)c2)CC1 | 4.76
CCOC(=O)c1ccc(NC(=O)CC2SC(=O)N(c3ccccc3)C2=O)cc1 (stereo not drawn) | 5.62
O=C(NC[C@@]1(C(=O)Nc2cncc3ccccc23)CCOc2ccc(Cl)cc21)[C@]1(O)CCSC1 (stereo in doubt) | 5.71
CC1(CS(=O)(=O)N2Cc3ccc(Cl)cc3C3(CCN(c4cncc5ccccc45)C3=O)C2)CS(=O)(=O)C1 (stereo not drawn) | 6.84
O=C(Cc1cc(Cl)cc(Nc2ccc(OCc3ccccc3)cc2)c1)Nc1cncc2ccccc12 | 5.08
COc1cc(C(=O)N(c2ccc(C(C)(C)C)cc2)C(C(=O)NCCc2cccc(F)c2)c2cccnc2)sn1 (stereo not drawn) | < 4.00
O=C(Cc1cc(Cl)cc(Nc2cc(Cl)cnc2Br)c1)Nc1cncc2ccccc12 | 5.70
CC(C)(C)c1ccc(N(C(=O)c2ccco2)C(C(=O)Nc2ccccc2)c2cccnc2)cc1 (stereo not drawn) | 4.95
O=C(NCCc1cccc(F)c1)C(c1cccnc1)N(C(=O)c1cnc[nH]1)C1CCCC2(CCC2)C1 (stereo not drawn) | < 4.00
O=C(Cc1cc(Cl)cc(NC(c2ccccc2)c2ccccc2)c1)Nc1cncc2ccccc12 | 5.47

Compound | pIC50
COc1ccc(NC(=O)C(c2cccnc2)N(C(=O)c2cocn2)c2ccc(C(C)(C)C)cc2)cn1 (stereo not drawn) | 5.27
O=C(Cc1cccc(C(F)(F)F)c1)Nc1cncc2ccccc12 | 5.16
O=C(Nc1cncc2ccccc12)C12CCC(O1)c1cc(Cl)ccc12 (stereo not drawn) | 5.62
Cc1ccncc1NC(=O)Cc1cc(Cl)cc(OCCN2CCOCC2C)c1 (stereo not drawn) | < 4.00
O=C(NCCc1cccc(F)c1)C(c1cccnc1)N(Cc1cc(C(F)(F)F)cs1)C(=O)c1ccco1 (stereo not drawn) | < 4.00
COc1ccc(CNCC2(C(=O)Nc3cncc4ccccc34)CCOc3ccc(Cl)cc32)cc1OCC(N)=O (stereo not drawn) | 4.94
N#CC1(CS(=O)(=O)N2Cc3ccc(Cl)cc3[C@H](C(=O)Nc3cncc4ccccc34)C2)CCS(=O)(=O)CC1 (stereo in doubt) | > 7.30 and 7.09 and 7.28
Cc1ccncc1NC(=O)CN1C(=O)COc2ccc(Cl)cc21 | 4.22
O=C(Nc1[nH]nc2cccc(F)c12)C1CCOc2ccc(Cl)cc21 (stereo not drawn) | < 4.00
COc1cc2cncc(NC(=O)Cc3cccc(Cl)c3)c2cc1OC | < 4.00
O=C(Nc1cncc2ccccc12)[C@@H]1COc2ccc(Cl)cc21 (stereo in doubt) | 6.28 and 6.17 and 6.32
O=C(Cc1cc(Cl)cc(Nc2ncc(F)cc2Br)c1)Nc1cncc2ccccc12 | 5.74
O=C(Cc1cc(Cl)cc(Nc2ccc(I)cc2F)c1)Nc1cncc2ccccc12 | 5.65
O=C(NCCc1cccc(F)c1)C(c1cccnc1)N(C(=O)c1cocn1)c1ccc2c(c1)CCOC2 (stereo not drawn) | < 4.00
CNC(=O)CN1Cc2ccc(Cl)cc2[C@]2(CCN(c3cncc4c3CCCC4)C2=O)C1 (stereo in doubt) | < 4.00
CC(NC(=O)Cc1ccc(-n2cnnn2)cc1)(C(=O)Nc1cncc2ccccc12)c1ccc(Cl)c(Cl)c1 (stereo not drawn) | 5.47 and 5.20
O=C(O)CC1(C(=O)Nc2cncc3ccccc23)CCOc2ccc(Cl)cc21 (stereo not drawn) | 4.50 and < 5.00
Cc1ccncc1NC(=O)N(C)c1cccc(Cl)c1 | < 4.00
CC(=O)NCCc1c[nH]c2ccc(O)cc12 | < 4.00
O=C(c1cc(=O)[nH]c2ccccc12)N1CCN(c2ccc(F)cc2)CC1 | 4.78
COc1ccccc1OCCNC(=O)c1cc(=O)[nH]c2cc(F)ccc12 | < 4.00
Cc1cc(C)nc(C#N)n1 | < 4.00
N#Cc1cccc(C2CN(C(=O)CCl)Cc3ccccc32)c1 (stereo not drawn) | 5.93
Cc1ccc(S(=O)(=O)N2CCN(C(=O)CCl)C[C@H]2C(=O)NCCc2ccccc2)cc1 (stereo in doubt) | 4.93
CN(C)c1ccc(N(Cc2cccc(Cl)c2)C(=O)Cn2nnc3ccccc32)cc1 | 6.30

Compound | pIC50
CC1(CS(=O)(=O)N2Cc3ccc(Cl)cc3C(C(=O)Nc3cncc4cccc(Cl)c34)C2)CS(=O)(=O)C1 (stereo not drawn) | 6.02
NS(=O)(=O)c1ccc2c(c1)CN(CC1CCN(C(=O)CCl)CC1)CC2 | 4.71
Cn1ncc2c(NC(=O)Cc3cccc(Cl)c3)cncc21 | 4.47
CC(C)(C)c1ccc(N(C(=O)c2cscn2)C(C(=O)NCCc2cccc(F)c2)c2cccnc2)cc1 (stereo not drawn) | 6.05
O=C(Nc1ccc(N(Cc2ccsc2)C(=O)Cn2nnc3ccccc32)cc1)C1CC1 | 5.40
CN(C)S(=O)(=O)N1Cc2ccc(Cl)cc2C(C(=O)Nc2cnccc2C(F)(F)F)C1 (stereo not drawn) | 4.54
O=C(Nc1cncc2ccccc12)C12CCC(O1)c1ccc(Cl)cc12 (stereo not drawn) | 4.95
N#CC1(CS(=O)(=O)N2Cc3ccc(Cl)cc3C3(CCN(c4cncc5ccccc45)C3=O)C2)CCOCC1 (stereo not drawn) | 6.47
CC1(CS(=O)(=O)N2Cc3ccc(Cl)cc3C(C(=O)Nc3cncc4ccccc34)C2)CC1 (stereo not drawn) | 7.01
NC1CCc2c(NC(=O)C3CCOc4ccc(Cl)cc43)cncc21 (stereo not drawn) | 4.59
O=C(Nc1cncc2ccccc12)C1COc2ccc(Cl)cc21 (stereo not drawn) | 6.12
CCN(Cc1ccc(F)cc1)c1cc(Cl)cc(CC(=O)Nc2cncc3ccccc23)c1 | < 4.00
C=CC(=O)N(c1ccc(C(C)(C)C)cc1)C(C(=O)NCCc1cccc(F)c1)c1cncc(C#N)c1 (stereo not drawn) | 5.13
Nc1nn(C(=O)Cc2cccc(Cl)c2)c2cccc(F)c12 | < 4.00
O=C(Nn1cnc2ccccc21)C(Cc1cccc(Cl)c1)c1ccc(N2CCOCC2)cc1 (stereo not drawn) | < 4.00
COc1ccc(CC(=O)Nc2cncc3ccccc23)cc1 | 4.14
Cc1ccn2c(NC(=O)Cc3cccc(Cl)c3)cnc2c1 | 4.71
O=C(c1cc(=O)[nH]c2ccccc12)N1CCN(Cc2ccccc2)CC1 | 5.06
CCOC(=O)c1cccc(NC(=O)[C@@H]2CN(C(=O)CCl)CCN2S(=O)(=O)c2ccsc2)c1 (stereo in doubt) | 6.34
COC1CC2(C1)CC(N(C(=O)c1cocn1)C(C(=O)NCCc1cccc(F)c1)c1cccnc1)C2 (stereo not drawn) | < 4.00
COc1cccc(CC(=O)Nc2cncc3ccccc23)c1 | 4.52
CC(CNC(=O)c1cnc2ccccn12)Nc1nc2ccccc2o1 (stereo not drawn) | < 4.00
N#Cc1cc(CN2CCN(C(=O)CCl)CC2)c2ccccc2c1 | 5.34
